Test results: US6737383B1, “Herbicidal oxadiazolidines” (priority 1999, dated 2004)

Key:
bedstraw = test: Test B pre/postemergence bedstraw; type: in vivo, Galium aparine
Outline: (§1)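 Test chemicals in a non-phytotoxic solvent mixture with surfactant were sprayed preemergence onto planted seeds and postemergence onto plants 2 to 18 cm tall (1- to 4-leaf stage). After twelve to sixteen days in a greenhouse, injury was visually rated against untreated controls from 0 (no effect) to 10 (complete control).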

cocklebur = test: Test B pre/postemergence cocklebur; type: in vivo, Xanthium strumarium
Outline: as §1

corn = test: Test B pre/postemergence corn; type: in vivo, Zea mays
Outline: as §1

crabgrass = test: Test B pre/postemergence crabgrass; type: in vivo, Digitaria sanguinalis
Outline: as §1

giant foxtail = test: Test B pre/postemergence giant foxtail; type: in vivo, Setaria faberii
Outline: as §1

morningglory = test: Test B pre/postemergence morningglory; type: in vivo, Ipomoea hederacea
Outline: as §1

pigweed = test: Test B pre/postemergence pigweed; type: in vivo, Amaranthus retroflexus
Outline: as §1

rape = test: Test B pre/postemergence rape; type: in vivo, Brassica napus
Outline: as §1

soybean = test: Test B pre/postemergence soybean; type: in vivo, Glycine max
Outline: as §1

velvetleaf = test: Test B pre/postemergence velvetleaf; type: in vivo, Abutilon theophrasti
Outline: as §1

wheat = test: Test B pre/postemergence wheat; type: in vivo, Triticum aestivum
Outline: as §1

wild oat = test: Test B pre/postemergence wild oat; type: in vivo, Avena fatua
Outline: as §1

purple nutsedge = test: Test B pre/postemergence purple nutsedge; type: in vivo, Cyperus rotundus
Outline: as §1

rice = test: Test B flood test rice; type: in vivo, Oryza sativa; settings: Pre-emergence
Outline: (§2)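 Each value is a visual injury score relative to controls, with 10 meaning complete control and 0 no effect. Evaluation took place twelve to sixteen days after the 2-leaf-stage plants were treated and kept in the greenhouse.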

smallflower flatsedge = test: Test B flood test smallflower flatsedge; type: in vivo, Cyperus difformis; settings: Pre-emergence
Outline: as §2

duck salad = test: Test B flood test duck salad; type: in vivo, Heteranthera limosa; settings: Pre-emergence
Outline: as §2

[1] = Postemergence, Rate 1000 g/ha, scale 0 to 10 (0 no effect, 10 complete control)
[2] = Preemergence, Rate 250 g/ha, scale of 0 to 10 where 0 is no effect and 10 is complete control
[3] = Preemergence, Rate 500 g/ha, scale of 0 to 10 where 0 is no effect and 10 is complete control
[4] = Rate 125 g/ha, Postemergence, scale 0 to 10
[5] = Rate 125 g/ha, Preemergence, scale of 0 to 10 where 0 is no effect and 10 is complete control
[6] = Rate 500 g/ha, Postemergence, scale 0 to 10, 0 no effect, 10 complete control
[7] = Rate 1000 g/ha, Preemergence, scale 0 to 10 (0 no effect, 10 complete control)
[8] = Rate 1000 g/ha, scale 0 to 10 (0 no effect, 10 complete control)
[9] = Rate 125 g/ha, flood test species, scale 0 to 10 where 0 is no effect and 10 is complete control
[10] = Rate 250 g/ha, flood-test species, scale 0 to 10, 0 is no effect, 10 is complete control
[11] = Rate 500 g/ha, flood test species, scale 0 to 10 (0 no effect, 10 complete control)

## CCOC(=O)C(C)N(C(=O)n1oc(=O)n(-c2ccccc2C)c1=O)c1ccc(F)cc1 (stereo not drawn) [Compound 247]
bedstraw; [1]
  Bedstraw plant response rating: 0
bedstraw; [2]
  Bedstraw plant response rating: 0
bedstraw; [3]
  Plant response rating, Bedstraw: 0
bedstraw; [4]
  Bedstraw plant response rating: 0
bedstraw; [5]
  Bedstraw plant response rating: 0
bedstraw; Rate 250 g/ha, Postemergence
  Plant response rating (0 to 10; 0 is no effect, 10 is complete control), Bedstraw: 0
bedstraw; [6]
  Bedstraw plant response rating: 0
bedstraw; [7]
  Plant response rating, Bedstraw: 0
cocklebur; [1]
  Cocklebur plant response rating: 0
cocklebur; [2]
  Cocklebur plant response rating: 0
cocklebur; [3]
  Plant response rating, Cocklebur: 0
cocklebur; [4]
  Cocklebur plant response rating: 0
cocklebur; [5]
  Cocklebur plant response rating: 0
cocklebur; Rate 250 g/ha, Postemergence
  Plant response rating (0 to 10; 0 is no effect, 10 is complete control), Cocklebur: 0
cocklebur; [6]
  Cocklebur plant response rating: 0
cocklebur; [7]
  Plant response rating, Cocklebur: 0
corn; [1]
  Corn plant response rating: 0
corn; [2]
  Corn plant response rating: 0
corn; [3]
  Plant response rating, Corn: 0
corn; [4]
  Corn plant response rating: 0
corn; [5]
  Corn plant response rating: 0
corn; Rate 250 g/ha, Postemergence
  Plant response rating (0 to 10; 0 is no effect, 10 is complete control), Corn: 0
corn; [6]
  Corn plant response rating: 0
corn; [7]
  Plant response rating, Corn: 0
crabgrass; [1]
  Crabgrass plant response rating: 0
crabgrass; [2]
  Crabgrass plant response rating: 2
crabgrass; [3]
  Plant response rating, Crabgrass: 2
crabgrass; [5]
  Crabgrass plant response rating: 0
crabgrass; Rate 250 g/ha, Postemergence
  Plant response rating (0 to 10; 0 is no effect, 10 is complete control), Crabgrass: 0
crabgrass; [6]
  Crabgrass plant response rating: 0
crabgrass; [7]
  Plant response rating, Crabgrass: 3
Giant foxtail; [1]
  Giant foxtail plant response rating: 0
Giant foxtail; [2]
  Giant foxtail plant response rating: 2
Giant foxtail; [3]
  Plant response rating, Giant foxtail: 3
Giant foxtail; [5]
  Giant foxtail plant response rating: 0
Giant foxtail; Rate 250 g/ha, Postemergence
  Plant response rating (0 to 10; 0 is no effect, 10 is complete control), Giant foxtail: 0
Giant foxtail; [6]
  Giant foxtail plant response rating: 0
Giant foxtail; [7]
  Plant response rating, Giant foxtail: 7
morningglory; [1]
  Morningglory plant response rating: 4
morningglory; [2]
  Morningglory plant response rating: 0
morningglory; [3]
  Plant response rating, Morningglory: 0
morningglory; [5]
  Morningglory plant response rating: 0
morningglory; Rate 250 g/ha, Postemergence
  Plant response rating (0 to 10; 0 is no effect, 10 is complete control), Morningglory: 2
morningglory; [6]
  Morningglory plant response rating: 2
morningglory; [7]
  Plant response rating, Morningglory: 0
pigweed; [1]
  Redroot pigweed plant response rating: 0
pigweed; [2]
  Redroot pigweed plant response rating: 0
pigweed; [3]
  Plant response rating, Redroot pigweed: 0
pigweed; [5]
  Redroot pigweed plant response rating: 0
pigweed; Rate 250 g/ha, Postemergence
  Plant response rating (0 to 10; 0 is no effect, 10 is complete control), Redroot pigweed: 0
pigweed; [6]
  Redroot pigweed plant response rating: 0
pigweed; [7]
  Plant response rating, Redroot pigweed: 0
rape; [1]
  Rape plant response rating: 0
rape; [2]
  Rape plant response rating: 0
rape; [3]
  Plant response rating, Rape: 0
rape; [5]
  Rape plant response rating: 0
rape; Rate 250 g/ha, Postemergence
  Plant response rating (0 to 10; 0 is no effect, 10 is complete control), Rape: 0
rape; [6]
  Rape plant response rating: 0
rape; [7]
  Plant response rating, Rape: 0
soybean; [1]
  Soybean plant response rating: 1
soybean; [2]
  Soybean plant response rating: 0
soybean; [3]
  Plant response rating, Soybean: 0
soybean; [5]
  Soybean plant response rating: 0
soybean; [6]
  Soybean plant response rating: 0
soybean; [7]
  Plant response rating, Soybean: 0
velvetleaf; [1]
  Velvetleaf plant response rating: 0
velvetleaf; [2]
  Velvetleaf plant response rating: 0
velvetleaf; [3]
  Plant response rating, Velvetleaf: 0
velvetleaf; [5]
  Velvetleaf plant response rating: 0
velvetleaf; [6]
  Velvetleaf plant response rating: 0
velvetleaf; [7]
  Plant response rating, Velvetleaf: 0
wheat; [1]
  Wheat plant response rating: 0
wheat; [2]
  Wheat plant response rating: 0
wheat; [3]
  Plant response rating, Wheat: 0
wheat; [5]
  Wheat plant response rating: 0
wheat; [6]
  Wheat plant response rating: 0
wheat; [7]
  Plant response rating, Wheat: 0
Wild oat; [1]
  Wild oats plant response rating: 0
Wild oat; [2]
  Wild oats plant response rating: 0
Wild oat; [3]
  Plant response rating, Wild oats: 0
Wild oat; [5]
  Wild oats plant response rating: 0
Wild oat; [6]
  Wild oats plant response rating: 0
Wild oat; [7]
  Plant response rating, Wild oats: 0
Purple nutsedge; [1]
  Nutsedge plant response rating: 0
Purple nutsedge; [2]
  Nutsedge plant response rating: 0
Purple nutsedge; Rate 250 g/ha, Postemergence
  Plant response rating (0 to 10; 0 is no effect, 10 is complete control), Nutsedge: 0
Purple nutsedge; [6]
  Nutsedge plant response rating: 0
rice; [8]
  Rice plant response rating: 0
rice; [9]
  Rice plant response rating: 0
rice; [10]
  Rice plant response rating: 0
rice; [11]
  Rice plant response rating: 0
Smallflower flatsedge; [8]
  S. Flatsedge plant response rating: 0
Smallflower flatsedge; [9]
  S. Flatsedge plant response rating: 0
Smallflower flatsedge; [10]
  S. Flatsedge plant response rating: 0
Smallflower flatsedge; [11]
  S. Flatsedge plant response rating: 0
Duck salad; [8]
  Ducksalad plant response rating: 0
Duck salad; [9]
  Ducksalad plant response rating: 0
Duck salad; [10]
  Ducksalad plant response rating: 0
Duck salad; [11]
  Ducksalad plant response rating: 0
